Converted amounts (≈) assume the structure as drawn.
How the values were obtained:
[1] = tested on: human cytomegalo-virus (HCMV); assay: Antiviral activity against HCMV, plaque reduction in human embryonic fibroblasts (Method 2); type: cell-based; conditions: Human betaherpesvirus 5, Fibroblast, plaque number reduced to 50%, 9 or 10 days
Experimental: Antiviral activity against human cytomegalo-virus (HCMV) which is a DNA virus was tested by the following method.
Confluent monolayers of human embryonic fibroblasts in plastic dishes (diameter: 35 mm) were infected with 100 to 150 plaque forming units of HCMV. After an 1-hour adsorption period at 37° C., the cultures were overlaid with 2 ml of 0.5% agarose in Eagle's minimum essential medium containing 3% fetal calf serum and various concentrations of drugs. The cultures infected with HCMV were fixed and stained at 9 or 10 days after infection. The second agarose overlay containing appropriate concentrations of drugs was added 5 days after infection. Plaque numbers were counted by using a dissecting microscope at ×20 magnification. The antiviral activities of drugs were expressed in terms of median effective concentrations (EC50) which were defined as the drug concentrations that reduced the number of plaques to 50%.

[2] = tested on: Herpes simplex 1 virus (HSV-1); assay: Antiviral activity against HSV-1, CPE inhibition in Vero cells (Method 1); type: cell-based; conditions: Human alphaherpesvirus 1, 50% inhibition of CPE, about 72 hours, Neutral Red
Experimental: Antiviral activity against Herpes simplex 1 virus (HSV-1) which is a DNA virus was tested by the following method.
Vero cells (originated from kidney cells of African Green Monkey) were cultured in MEM medium to which 10% bovine embryo serum had been added. A cell suspension adjusted to a concentration of 200,000 cells/ml was spread onto 96 wells plate (COSTAR) and cultured for 24 hours so that the cells became confluent. To the medium drawn out was added HSV-1 virus, and it was infected for one hour. Then, the virus fluid was drawn out and cultured for about 72 hours in a fresh medium containing agents. The alive cells were stained with a staining solution containing Neutral Red and absorbance at a wavelength of 546 nm (A546) was measured to evaluate the cytopathic effect (CPE).
CPE inhibition (%) was calculated according to the following equation: [formula] and a quantity of sample enough for 50% inhibition of the CPE due to virus was taken as IC50 (μg/ml).

[3] = Oral absorbability: plasma concentration of Compound 1a (B^1 = 9-guanyl) in mice after oral or intravenous administration (Method 4); type: in vivo; conditions: Compound 1a (B^1 = 9-guanyl) in plasma, male CDF1 mice; for AUC, intravenous injection / Tmax, intravenous injection: 75 μM/kg intravenous; for AUC, oral administration / Tmax, oral administration: 75 μM/kg oral
Experimental: Oral absorbability of compounds of this invention were tested according to the following method.
Male CDF1 mice (6-8 weeks in age) (Japan Charles Liver Co.) were used. Each substance to be tested was dissolved into physiological salt solution, and its 75 μM/kg dosage (0.1-0.5 ml/10 g dosage) was administered orally or intravenously. Ten minutes, thirty minutes, one hour and 3 hours after the administration, blood was taken from 2-3 heads of mice by means of an injection tube previously treated with heparin, and the blood was centrifuged at 3,000 rpm for 10 minutes to obtain a plasma. To 200 μl of the plasma was added 9-[2-hydroxy-3-hydroxymethylcyclobutan-1-yl]-guanine (2 μg/10 μl […]) as an internal standard. After diluting it with 4 ml of water, it was washed with 2 ml of water by the use of Ceppack C18 Cartridge (Millipore Waters Co.). It was eluted with 5 ml of methanol, concentrated to dryness, re-dissolved into 200 μl of water, and then subjected to HPLC to measure the concentration of 9-((1R,2R,3S)-2,3-bis(hydroxymethyl)-1cyclobutyl) guanine (Compound 1a, wherein B^1 =9-guanyl), from which maximum concentration (Cmax), time of maximum concentration (Tmax) and the area under the concentration curve (AUC) were determined.
Column: Cosmosil 5C18-P (Nacalai Tesque, 250 mm×4.6 mm, i.d.)
Solvent: 0.1. M citric acid (pH 4): acetonitrile:methanol=50:2:1

hepatitis B virus (HBV) = assay: Antiviral activity against HBV, inhibition of HBV DNA synthesis in HB611 cells (Method 3); type: cell-based; conditions: 360 h, 50% inhibition of HBV DNA synthesis, 15 days, read-out: ID50 HBV
Experimental: Antiviral activity against hepatitis B virus (HBV) which is a DNA virus was tested by the following method.
The test was done by using a cell line, HB611, that was established by transfection and continuously produces HBV like particles [Proc. Natl. Acad. Sci. USA, 84, 444-449, 1987]. HB611 cells were maintained in Dulbecco's modified Eagle medium (Gibco) supplemented with 10% fetal bovine serum (Gibco), 100 μg/ml of streptomycin, 100 IU ml of benzyl penicillin (Gibco) and 200 μg/ml of geneticin (Gibco) at 37° C. in 5% CO2 -95% air.
The cells were seeded in 24-well plate (Corning) at a density of 3×10^4 cells/well, using 1.0 ml of the medium. After 2 days of incubation, the medium was replaced with the same medium containing the test compound. The cells were incubated for a further 15 days, during which time the medium containing the drug was exchanged every three days. The cells were then harvested and cellular DNA was prepared [Virology, 169, 213-216, 1989], and digested with restriction enzyme Hind III (Takara Shuzo Co., Ltd.). An aliquot (2-3 μg) was electrophoresed in 1.5% agarose gel, followed by blotting onto a nylon membrane Hybond-N^+ according to Southern [J. Mol. Biol., 98, 503-517, 1975]. The filter was hybridized to random primed 32p labeled HBV DNA probe, and washed twice with 2× standard saline citrate containing 0.1% SDS at 65° C. for 30 min. It was then autoradiographed, and the results were analyzed using a densitometric analyzer (Shimadzu, Chromatoscana S930).
To quantitatively evaluate the inhibitory activity of the compounds, we measured the band areas S, D1, D2 (S, D1 and D2 represent intracellular free HBV DNA derived from replicative intermediates) and I (represents chromosomally integrated HBV DNA) by densitometric analyzer, and calculated the inhibition percentage as follows: [formula]
In table 1, antiviral activity is represented by 50% inhibition doses (ID50) on HBV DNA synthesis.

Row | SMILES | EC50 [1] [µg/mL] | IC50 [2] [µg/mL] | AUC, intravenous injection [3] [ng·h/mL] | Tmax, intravenous injection [3] | AUC, oral administration [3] [ng·h/mL] | Tmax, oral administration [3] | IC50 (hepatitis B virus (HBV)) [µg/mL]
1 | Nc1nc2c(ncn2[C@@H]2C[C@H](COP(=O)(O)Oc3cccc(Cl)c3)[C@H]2CO)c(=O)[nH]1 [Compound 53, 9[-(1R,2R,3S)-2-hydroxymethyl-3-(hydroxy(3-chlorophenoxy)phosphoryl)oxymethyl-1-cyclobutyl]-guanine] | 1 to 3 (≈ 2.19 to 6.58 µM) | 1.22 (≈ 2.68 µM) | 3228 | 10 ' | 1405 | 30 ' | 0.1 to 1 (≈ 0.219 to 2.19 µM)
2 | COc1ccc(OP(=O)(O)OC[C@H]2C[C@@H](n3cnc4c(=O)[nH]c(N)nc43)[C@@H]2CO)cc1 [Compound 71, 9-[(1R,2R,3S)-2-hydroxymethyl-3-(hydroxy(4-methoxyphenoxy)phosphoryl)oxymethyl-1-cyclobutyl]-guanine] | 0.1 to 1 (≈ 0.222 to 2.22 µM) | 0.873 (≈ 1.93 µM) | 4393 | 10 ' | 1678 | 10 ' | 0.1 to 1 (≈ 0.222 to 2.22 µM)
3 | Cc1ccc(OP(=O)(O)OC[C@H]2C[C@@H](n3cnc4c(=O)[nH]c(N)nc43)[C@@H]2CO)cc1 [Compound 68, 9-[(1R,2R,3S)-2-hydroxymethyl-3-(hydroxy(4-methylphenoxy)phosphoryl)oxymethyl-1-cyclobutyl]-guanine] | 0.1 to 1 (≈ 0.23 to 2.3 µM) | 1.26 (≈ 2.89 µM) | 4116 | 10 ' | 1754 | 30 ' | 0.1 to 1 (≈ 0.23 to 2.3 µM)
4 | Nc1nc2c(ncn2[C@@H]2C[C@H](COP(=O)(O)Oc3ccc(Cl)cc3)[C@H]2CO)c(=O)[nH]1 [Compound 56, 9-[(1R,2R,3S)-2-hydroxymethyl-3-(hydroxy(4-chlorophenoxy)phosphoryl)oxymethyl-1-cyclobutyl]-guanine] | 1 to 3 (≈ 2.19 to 6.58 µM) | 0.699 (≈ 1.53 µM) | 3167 | 10 ' | 1762 | 10 ' | 0.1 to 1 (≈ 0.219 to 2.19 µM)
5 | Nc1nc2c(ncn2[C@@H]2C[C@H](COP(=O)(O)Oc3ccccc3)[C@H]2CO)c(=O)[nH]1 [Compound 14, 9-[(1R,2R,3S)-2-hydroxymethyl-3-(hydroxy-(phenoxy)phosphoryl)oxymethyl-1-cyclobutyl]-guanine] | – | – | 5076 | 10 ' | 2262 | 30 ' | –
6 | Nc1nc2c(ncn2[C@@H]2C[C@H](COP(=O)(O)Oc3ccccc3Cl)[C@H]2CO)c(=O)[nH]1 [Compound 50, 9-[(1R,2R,3S)-2-hydroxymethyl-3-(hydroxy(2-chlorophenoxy)phosphoryl)oxymethyl-1-cyclobutyl]-guanine] | 1 to 3 (≈ 2.19 to 6.58 µM) | 1.13 (≈ 2.48 µM) | 3177 | 10 ' | 1526 | 30 ' | ~0.1 (≈ 0.219 µM)
7 | Nc1nc2c(ncn2[C@@H]2C[C@H](COP(=O)(O)Oc3ccc(F)cc3)[C@H]2CO)c(=O)[nH]1 [Compound 65, 9-[(1R,2R,3S)-2-hydroxymethyl-3-(hydroxy(4-fluorophenoxy)phosphoryl)oxymethyl-1-cyclobutyl]-guanine] | 1 to 3 (≈ 2.28 to 6.83 µM) | 1.13 (≈ 2.57 µM) | 6373 | 10 ' | 1712 | 30 ' | 0.1 to 1 (≈ 0.228 to 2.28 µM)
8 | Nc1nc2c(ncn2[C@@H]2C[C@H](CO)[C@H]2COP(=O)(O)Oc2ccccc2)c(=O)[nH]1 [Compound 13, 9-[(1R,2R,3S)-3-hydroxymethyl-2-(hydroxy-(phenoxy)phosphoryl)oxymethyl-1-cyclobutyl]-guanine] | – | – | 2962 | 10 ' | 1122 | 30 ' | –
